{"source": "patent US9486493B2", "about": "“Use of a peptide and an analgesic pharmaceutical agent” (priority 2007, dated 2016)", "key": {"[1]": {"tested_on": "pain reaction in mice with inflammation", "assay": "Freund's adjuvant limb inflammation in mice, acute pain by tail dipping in 55° C water", "assay_type": "in vivo", "protocol": "Inflammation was induced in mice through the administration of Freund's adjuvant into a limb. After two days, a progressing inflammation was observed. The analgesic activity of biphalin was observed following a week, during acute pain caused by tail dipping in water at a temperature of 55° C."}, "[2]": {"tested_on": "pain reaction in mice with inflammation", "assay": "Animal pain model of tumour metastasis (human ovarian cancer cells into a rear limb), tail dipping in 55° C water", "assay_type": "in vivo", "details": "for dose necessitated for a similar analgesic effect: control group lacking the inflammation; for analgesic activity (pain reaction): mice with inflammation, after two weeks", "protocol": "(§1) In an animal pain model of tumour metastasis, inflammation was induced though the injection of a million human ovarian cancer cells into a rear limb. After two days, we observed a progressing inflammation induced by tumour take. The analgesic activity of biphaline was observed after two weeks, during acute pain caused by tail dipping in water at a temperature of 55° C. […] In the control group, which lacked the inflammation, a similar analgesic effect necessitated the use of a dose of 1 mg/kg.\nas §1, with “(Tyr-Ser-Gly-Phe-NH—)2” for “biphaline”, “4” for “1”"}, "[3]": {"tested_on": "acute pain in rat with inflammation", "assay": "Animal rheumatoid inflammation model (Mycobacterium butyricum into the tarsal joint), thermal stimulation of the tail", "assay_type": "in vivo", "details": "for antinociceptive effects: control group; for analgesic effect on acute pain: rat with inflammation, 0.5 mg/kg, after two weeks", "protocol": "In an animal rheumatoid inflammation model, an anaesthetised rat was injected with homogenates of thermically inactivated Mycobacterium butyricum suspended in sunflower oil at a volume ratio of 1:1 into the tarsal joint. After two weeks inflammation was observed. The analgesic effect on acute pain was observed using thermal stimulation of the tail."}, "[4]": {"details": "intravenous administration; cited from earlier work"}, "[5]": {"details": "directly into the subarachnoid space (intrathecal), rats; cited from earlier work"}, "[6]": {"details": "humans; cited from earlier work"}}, "note": "Where no end group is shown, it is not given here."}
{"compound": "C[C@@H](NC(=O)[C@@H](N)Cc1ccc(O)cc1)C(=O)NCC(=O)N[C@@H](Cc1ccccc1)C(=O)NNC(=O)[C@H](Cc1ccccc1)NC(=O)CNC(=O)[C@@H](C)NC(=O)[C@@H](N)Cc1ccc(O)cc1", "note": "[biphalin]", "values": [{"measurement": "analgesic activity (pain reaction)", "setting": "[1]; control group lacking the inflammation, same dose 50 μg/kg intravenous", "result": "no effect was observed"}, {"measurement": "analgesic activity (pain reaction)", "setting": "[1]; mice with inflammation, 50 μg/kg intravenous, one week after Freund's adjuvant", "result": "complete disappearance of the pain reaction"}, {"measurement": "dose necessitated for a similar analgesic effect", "setting": "[2]", "result": 1, "unit": "mg/kg"}, {"measurement": "analgesic activity (pain reaction)", "setting": "[2]; 100 μg/kg intraperitoneal", "result": "complete disappearance of the pain reaction"}, {"measurement": "antinociceptive effects", "setting": "[3]; same amount (0.5 mg/kg)", "result": "no antinociceptive effects were observed"}, {"measurement": "analgesic effect on acute pain", "setting": "[3]", "result": "completely blocked pain effects"}, {"measurement": "activity relative to morphine", "setting": "[4]", "result": "equivalent to that of morphine"}, {"measurement": "activity relative to morphine administered the same way", "setting": "[5]", "result": "~1000", "unit": "fold"}]}
{"compound": "CN1CC[C@]23c4c5ccc(O)c4O[C@H]2[C@@H](O)C=C[C@H]3[C@H]1C5", "note": "[morphine]", "values": [{"measurement": "minimum effective dose usually used as an initial analgesic dose", "setting": "[6]", "result": 1, "unit": "mg"}]}
{"compound": "(Tyr-D-Thr-Gly-Trp-NH—)2", "values": [{"measurement": "antinociceptive effects", "setting": "[3]; after administration of 4 mg/kg", "result": "no antinociceptive effects were observed"}, {"measurement": "analgesic effect on acute pain", "setting": "[3]", "result": "completely blocked pain effects"}]}
{"compound": "(Tyr-Ser-Gly-Phe-NH—)2 (YSGF; also: dimer linked via C-terminal NH hydrazide bridge) [opioid peptide, analogue of biphalin]", "values": [{"measurement": "dose necessitated for a similar analgesic effect", "setting": "[2]", "result": 4, "unit": "mg/kg"}, {"measurement": "analgesic activity (pain reaction)", "setting": "[2]; 50 μg/kg intraperitoneal", "result": "complete disappearance of the pain reaction"}]}
